Measured values taken from patent US20180024136A1, “Development of ABCG2-Sensitive Fluorescent Probe For Isolation of ABCG2low Neural Stem/Progenitor Cells” (National University of Singapore, priority 2015, published 2018).

Key:
[1] = Spectroscopic properties of CF library (absorbance, emission, quantum yield, extinction coefficient); type: physicochemical; settings: 100 μM in ethanol; for QY (Φ): reference fluorescein
Protocol: All the chemicals and solvents were purchased from Sigma Aldrich, Alfa Aesar, Fluka, MERCK, Tocris or Acros, and used without further purification. Normal phase purifications were carried out using Merck Silica Gel 60 (particle size: 0.040-0.063 mm, 230-400 mesh). Analytical characterization was performed on a HPLC-MS (Agilent-1200 series) with a DAD detector and a single quadrupole mass spectrometer (6130 series) with an ESI probe. ^1H-NMR and ^13C-NMR spectra were recorded on Bruker Avance 300 MHz NMR spectrometers, and chemical shifts are expressed in parts per million (ppm) and coupling constants are reported as a J value in Hertz (Hz). High resolution mass spectrometry (HRMS) data was recorded on a Micro mass VG 7035 (Mass Spectrometry Laboratory at National University of Singapore (NUS)). Spectroscopic and quantum yield data were measured on spectroscopic measurements, performed on a fluorometer and UV/VIS instrument, Synergy 4 of Bioteck Company. The slit width was 1 nm for both excitation and emission, and the data analysis was performed using GraphPrism 5.0.

differentiated NS5 cells = experiment: CDg13 staining of differentiated NS5 cells under ABC transporter inhibitors (flow cytometry); type: cell-based, mouse; settings: inhibitor during staining
Protocol: (§1) Flow cytometry was performed using Attune Cytometer (Invitrogen). Hoechest33342 (2 μM) and CDg13 (1 μM) are incubated with culture media for 1 hours and detached as single cells. The collected cells were suspended in BSA- and FBS-free DMEM to prevent loss of CDg13 signal. The average fluorescence intensity of total cells in each experimental group was analyzed by Attune cytometer software for quantification study.

ABCG2 = molecular target: T1, ABCG2 (Homo sapiens, UniProt Q9UNQ0); experiment: Probe fluorescence in ABCG2/KB3-1 cells under Ko143; settings: ABCG2/KB3-1, 10 to 1,000 nM Ko143
T1 sequence (Q9UNQ0 1-655): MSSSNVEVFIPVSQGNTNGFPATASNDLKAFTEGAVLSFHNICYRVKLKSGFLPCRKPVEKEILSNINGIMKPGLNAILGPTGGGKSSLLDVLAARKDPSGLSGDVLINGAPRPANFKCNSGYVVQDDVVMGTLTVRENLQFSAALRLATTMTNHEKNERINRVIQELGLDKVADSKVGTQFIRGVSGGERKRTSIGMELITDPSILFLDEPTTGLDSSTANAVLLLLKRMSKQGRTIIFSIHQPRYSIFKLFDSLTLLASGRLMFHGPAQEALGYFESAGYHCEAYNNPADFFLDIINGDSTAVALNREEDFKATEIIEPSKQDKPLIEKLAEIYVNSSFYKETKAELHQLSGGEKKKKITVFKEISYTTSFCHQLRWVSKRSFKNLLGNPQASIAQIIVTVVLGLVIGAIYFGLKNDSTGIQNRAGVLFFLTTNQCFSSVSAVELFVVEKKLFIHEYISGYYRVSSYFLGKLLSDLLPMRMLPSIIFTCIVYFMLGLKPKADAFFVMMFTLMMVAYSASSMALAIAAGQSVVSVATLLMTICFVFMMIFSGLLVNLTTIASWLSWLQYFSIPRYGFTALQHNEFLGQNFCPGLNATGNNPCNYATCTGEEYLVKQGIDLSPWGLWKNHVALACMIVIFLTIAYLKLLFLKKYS

human KB3-1 cells = experiment: MTS viability assay on KB3-1 cells; type: cell-based; settings: 48 h
ABCB1 = ABCB1 (Homo sapiens, UniProt P08183); experiment: Probe fluorescence in HCT-15 cells under verapamil; settings: HCT-15, 10 to 10,000 nM verapamil
NS-5 cells = experiment: CDg13 staining of NS5 cells under STF31, ionomycin or Ko143; type: cell-based, mouse; settings: STF31 2 μM, ionomycin 0.1 μM, Ko143 0.5 μM
Protocol: FIGS. 7A-7C show CDg13 stains depending on Abcg2 activity: (A) CDg13 (1 μM) were stained for 1 hour in live (A-1) or dead cells treated with 4% PFA (A-2) (representative image of three independent experiments, and (B) and (C) NS5 cells were treated STF31 (2 μM), ionomycin (0.1 μM) or Ko143 (0.5 μM) with treatment of CDg13 and Hoechst33342 under normal media (control had same amount of DMSO (0.2%) with other drugs treated group), staining intensity is shown by epifluorescence microscopy (B) or flow cytometry (C) (bar: 50 μm).
as §1

ABCB1, sequence (P08183 whole entry): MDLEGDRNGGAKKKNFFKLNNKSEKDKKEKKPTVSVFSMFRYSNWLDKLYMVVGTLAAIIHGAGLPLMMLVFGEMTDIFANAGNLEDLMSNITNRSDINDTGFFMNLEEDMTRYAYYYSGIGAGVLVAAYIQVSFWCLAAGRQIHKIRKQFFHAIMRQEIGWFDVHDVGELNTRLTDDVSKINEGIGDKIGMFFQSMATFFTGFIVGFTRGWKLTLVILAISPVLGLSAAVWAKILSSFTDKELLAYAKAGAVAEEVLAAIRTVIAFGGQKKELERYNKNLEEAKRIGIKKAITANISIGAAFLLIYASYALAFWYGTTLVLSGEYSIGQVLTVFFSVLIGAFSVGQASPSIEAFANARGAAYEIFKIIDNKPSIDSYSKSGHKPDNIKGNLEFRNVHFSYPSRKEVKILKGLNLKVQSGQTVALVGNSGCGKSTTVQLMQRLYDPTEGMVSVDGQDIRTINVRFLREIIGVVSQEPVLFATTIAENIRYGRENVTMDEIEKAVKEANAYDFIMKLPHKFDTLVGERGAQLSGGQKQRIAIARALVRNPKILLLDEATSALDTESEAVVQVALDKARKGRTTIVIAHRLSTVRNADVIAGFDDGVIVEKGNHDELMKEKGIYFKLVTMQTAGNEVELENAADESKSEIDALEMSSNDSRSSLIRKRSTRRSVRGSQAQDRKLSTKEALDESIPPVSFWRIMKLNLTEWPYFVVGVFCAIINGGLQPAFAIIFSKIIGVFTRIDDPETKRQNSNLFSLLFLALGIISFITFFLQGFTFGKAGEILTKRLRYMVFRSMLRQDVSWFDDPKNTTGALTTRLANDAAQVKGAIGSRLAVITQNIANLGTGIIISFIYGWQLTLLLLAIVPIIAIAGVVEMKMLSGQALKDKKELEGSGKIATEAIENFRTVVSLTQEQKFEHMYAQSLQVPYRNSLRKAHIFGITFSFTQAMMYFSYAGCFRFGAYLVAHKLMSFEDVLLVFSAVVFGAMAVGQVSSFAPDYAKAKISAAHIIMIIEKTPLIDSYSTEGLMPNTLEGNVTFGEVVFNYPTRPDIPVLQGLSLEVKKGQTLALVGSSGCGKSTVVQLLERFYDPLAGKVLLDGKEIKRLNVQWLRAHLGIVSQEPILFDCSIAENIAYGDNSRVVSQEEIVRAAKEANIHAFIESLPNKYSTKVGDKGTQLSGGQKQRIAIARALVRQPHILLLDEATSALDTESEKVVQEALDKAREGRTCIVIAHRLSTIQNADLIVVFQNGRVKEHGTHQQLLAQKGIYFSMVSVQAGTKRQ

| Abs (nm) [1] | Em (nm) [1] | QY (Φ) [1] | Compound | other results |
| --- | --- | --- | --- | --- |
| 520 nm | 553 nm | 0.82 | COCCN(CCOC)C(=O)c1ccc(-c2c3cc(Cl)c(=O)cc-3oc3cc(O)c(Cl)cc23)cc1 [CF-H3] | – |
| 520 nm | 556 nm | 0.63 | CCCCCCNC(=O)c1ccc(-c2c3cc(Cl)c(=O)cc-3oc3cc(O)c(Cl)cc23)cc1 [CF-H4] | – |
| 520 nm | 557 nm | 0.67 | CC1CCC(NC(=O)c2ccc(-c3c4cc(Cl)c(=O)cc-4oc4cc(O)c(Cl)cc34)cc2)CC1 (stereo not drawn) [CF-H5] | – |
| 520 nm | 553 nm | 0.65 | CC1CCCCN1C(=O)c1ccc(-c2c3cc(Cl)c(=O)cc-3oc3cc(O)c(Cl)cc23)cc1 (stereo not drawn) [CF-H6] | – |
| 520 nm | 557 nm | 0.59 | O=C(NCCc1ccccc1F)c1ccc(-c2c3cc(Cl)c(=O)cc-3oc3cc(O)c(Cl)cc23)cc1 [CF-H7] | – |
| 520 nm | 556 nm | 0.51 | O=C(NCCc1ccccc1Cl)c1ccc(-c2c3cc(Cl)c(=O)cc-3oc3cc(O)c(Cl)cc23)cc1 [CF-H8] | – |
| 520 nm | 558 nm | 0.30 | O=C(NCCc1ccccc1-c1ccccc1)c1ccc(-c2c3cc(Cl)c(=O)cc-3oc3cc(O)c(Cl)cc23)cc1 [CF-H9] | – |
| 520 nm | 557 nm | 0.38 | CC(C)CC(C)NC(=O)c1ccc(-c2c3cc(Cl)c(=O)cc-3oc3cc(O)c(Cl)cc23)cc1 (stereo not drawn) [CF-H10] | – |
| 520 nm | 552 nm | 0.32 | CCCCCCCCCCCCCCCCCCN(C)C(=O)c1ccc(-c2c3cc(Cl)c(=O)cc-3oc3cc(O)c(Cl)cc23)cc1 [CF-H11] | – |

The next lines start with the compound.

| Compound | Abs (nm) [1] | Em (nm) [1] | QY (Φ) [1] | other results |
| --- | --- | --- | --- | --- |
| C#CCNC(=O)c1ccc(-c2c3cc(Cl)c(=O)cc-3oc3cc(O)c(Cl)cc23)cc1 [CF-F11] | 520 nm | 559 nm | 0.21 | – |
| CCCCCCCCCCCCN(C)C(=O)c1ccc(-c2c3cc(Cl)c(=O)cc-3oc3cc(O)c(Cl)cc23)cc1 [CF-G2] | 520 nm | 553 nm | 0.85 | – |
| CCCCCN(CCCCC)C(=O)c1ccc(-c2c3cc(Cl)c(=O)cc-3oc3cc(O)c(Cl)cc23)cc1 [CF-G3] | 520 nm | 552 nm | 0.63 | – |
| O=C(CCCCc1ccccc1)c1ccc(-c2c3cc(Cl)c(=O)cc-3oc3cc(O)c(Cl)cc23)cc1 [CF-G4] | 520 nm | 556 nm | 0.40 | – |
| CCCC(C)NC(=O)c1ccc(-c2c3cc(Cl)c(=O)cc-3oc3cc(O)c(Cl)cc23)cc1 (stereo not drawn) [CF-G5] | 520 nm | 557 nm | 0.38 | – |
| CCOC(=O)N1CCC(NC(=O)c2ccc(-c3c4cc(Cl)c(=O)cc-4oc4cc(O)c(Cl)cc34)cc2)CC1 [CF-G6] | 520 nm | 556 nm | 0.29 | – |
| CCCCNC(=O)c1ccc(-c2c3cc(Cl)c(=O)cc-3oc3cc(O)c(Cl)cc23)cc1 [CF-G7] | 520 nm | 559 nm | 0.41 | – |
| CCC(C)NC(=O)c1ccc(-c2c3cc(Cl)c(=O)cc-3oc3cc(O)c(Cl)cc23)cc1 (stereo not drawn) [CF-G8] | 520 nm | 556 nm | 0.29 | – |
| O=C(NCC1CCCCC1)c1ccc(-c2c3cc(Cl)c(=O)cc-3oc3cc(O)c(Cl)cc23)cc1 [CF-G9] | 520 nm | 557 nm | 0.27 | – |
| CCCCCNC(=O)c1ccc(-c2c3cc(Cl)c(=O)cc-3oc3cc(O)c(Cl)cc23)cc1 [CF-G10] | 520 nm | 558 nm | 0.23 | – |
| CCC(C)(C)NC(=O)c1ccc(-c2c3cc(Cl)c(=O)cc-3oc3cc(O)c(Cl)cc23)cc1 [CF-G11] | 520 nm | 557 nm | 0.35 | – |
| CC1CCCC(NC(=O)c2ccc(-c3c4cc(Cl)c(=O)cc-4oc4cc(O)c(Cl)cc34)cc2)C1C (stereo not drawn) [CF-H2] | 520 nm | 556 nm | 0.65 | – |
| COc1cc2c(cc1OC)CN(CCc1ccc(NC(=O)c3cccc4c(=O)c5cccc(OC)c5[nH]c34)cc1)CC2 [Elacridar, elacridar] | – | – | – | staining of CDg13 versus DMSO control (differentiated NS5 cells): around 2.5 fold |
| CCOc1ccc(-c2nc3ccc(-c4nc5ccc(N6CCN(C)CC6)cc5[nH]4)cc3[nH]2)cc1 [Hoechst 33342] | – | – | – | fold change in fluorescence intensity (ABCG2): up to 1.3 fold; death rate (human KB3-1 cells; 1 μM): 25%; cell death (human KB3-1 cells; 10 μM): 100%; fold change of staining (ABCB1): up to 1.5 fold |
| COc1ccc2c3c([nH]c2c1)[C@H](CC(C)C)N1C(=O)[C@H](CCC(=O)OC(C)(C)C)NC(=O)[C@@H]1C3 [Ko143] | – | – | – | staining of CDg13 versus DMSO control (differentiated NS5 cells): around 2.5 fold; effect on CDg13 staining (NS-5 cells): stained CDg13 more strongly than normal NS-5 cells |
| CN(C)C(=O)CCSC(SCCC(=O)O)c1cccc(/C=C/c2ccc3ccc(Cl)cc3n2)c1 (stereo not drawn) [MK571] | – | – | – | staining of CDg13 versus DMSO control (differentiated NS5 cells): ~1.5 fold |
| CCCN(CCC)S(=O)(=O)c1ccc(C(=O)O)cc1 [probenecid] | – | – | – | staining of CDg13 versus DMSO control (differentiated NS5 cells): no effect of probe staining |
| COc1ccc(CCN(C)CCCC(C#N)(c2ccc(OC)c(OC)c2)C(C)C)cc1OC (stereo not drawn) [verapamil] | – | – | – | staining of CDg13 versus DMSO control (differentiated NS5 cells): no effect of probe staining |
| Rhodamine123 | – | – | – | fold change in fluorescence intensity (ABCG2): did not increase; fold change of staining (ABCB1): up to 4.0 fold |
